Laboratory results published in PubChem BioAssay AID248 (DTP/NCI, 2004).
“And” between values parts separate entries of the source, which are not always exact repeats. Identical values can stand only once. Toxic doses and inconclusive results are not listed. Cut-off read from the data, not from the text of the source: active = T/C of 150% or more; inactive = T/C below 125%.

System: L1210 leukemia ip in BDF1 mice, survival T/C
Experiment: NCI In Vivo Anticancer Drug Screen. Data for tumor model L1210 Leukemia (intraperitoneal) in B6D2F1 (BDF1) mice
Settings: endpoint: mean survival time, higher = longer survival
Procedure, shortened: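 Antitumor effect is assessed in tumor-bearing animals. Survival in the compound arm is compared with a vehicle-dosed control arm and expressed as their quotient.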

[1] = dose: 100.0 mg/kg/injection, schedule: Q04DX003 (ip), vehicle: Klucel (hydroxypropylcellulose) (HPC)
[2] = dose: 200.0 mg/kg/injection, schedule: Q04DX003 (ip), vehicle: Klucel (hydroxypropylcellulose) (HPC)
[3] = dose: 400.0 mg/kg/injection, schedule: Q04DX003 (ip), vehicle: Klucel (hydroxypropylcellulose) (HPC)
[4] = dose: 100.0 mg/kg/injection, schedule: Q04DX002 (ip), vehicle: saline with Tween-80
[5] = dose: 200.0 mg/kg/injection, schedule: Q04DX002 (ip), vehicle: saline with Tween-80
[6] = dose: 100.0 mg/kg/injection, schedule: Q01DX001 (ip), vehicle: Klucel (hydroxypropylcellulose) (HPC)
[7] = dose: 400.0 mg/kg/injection, schedule: Q04DX002 (ip), vehicle: saline with Tween-80
[8] = dose: 12.5 mg/kg/injection, schedule: Q04DX003 (ip), vehicle: Klucel (hydroxypropylcellulose) (HPC)
[9] = dose: 25.0 mg/kg/injection, schedule: Q04DX003 (ip), vehicle: Klucel (hydroxypropylcellulose) (HPC)
[10] = dose: 50.0 mg/kg/injection, schedule: Q04DX003 (ip), vehicle: Klucel (hydroxypropylcellulose) (HPC)
[11] = dose: 100.0 mg/kg/injection, schedule: Q01DX009 (ip), vehicle: Klucel (hydroxypropylcellulose) (HPC)
[12] = dose: 200.0 mg/kg/injection, schedule: Q01DX009 (ip), vehicle: Klucel (hydroxypropylcellulose) (HPC)
[13] = dose: 400.0 mg/kg/injection, schedule: Q01DX009 (ip), vehicle: Klucel (hydroxypropylcellulose) (HPC)
[14] = dose: 100.0 mg/kg/injection, schedule: Q04DX002 (ip), vehicle: other
[15] = dose: 200.0 mg/kg/injection, schedule: Q04DX002 (ip), vehicle: other
[16] = dose: 50.0 mg/kg/injection, schedule: Q01DX009 (ip), vehicle: Klucel (hydroxypropylcellulose) (HPC)

Measured: T/C

CCCCCCCN(CCCCCCC)CC(O)c1cc2ccccc2c2cnccc12 (stereo not given)
inactive: dose: 100.0 mg/kg/injection, schedule: Q01DX009 (ip), vehicle: other 98 % of control | [1] 91 % of control | dose: 200.0 mg/kg/injection, schedule: Q01DX009 (ip), vehicle: other 97 % of control | [2] 98 % of control | [3] 93 % of control

O=C(Nc1ccc(C2=NCCS2)cc1)c1ccc(C(=O)Nc2ccc(C3=NCCS3)cc2)cc1
inactive: dose: 15.0 mg/kg/injection, schedule: Q01DX Z (ip), vehicle: carboxymethylcellulose (CMC) 98 % of control | dose: 30.0 mg/kg/injection, schedule: Q01DX Z (ip), vehicle: carboxymethylcellulose (CMC) 96 % of control | dose: 60.0 mg/kg/injection, schedule: Q01DX Z (ip), vehicle: carboxymethylcellulose (CMC) 95 % of control | dose: 120.0 mg/kg/injection, schedule: Q01DX Z (ip), vehicle: carboxymethylcellulose (CMC) 96 % of control | dose: 125.0 mg/kg/injection, schedule: Q01DX Z (ip), vehicle: water 98 % of control

CCCC(=O)N1C(C)CCC1C (stereo not given)
inactive: [4] 103 % of control | [5] 95 % of control

O=C1c2ccccc2C(=O)N1Cc1cccc(CBr)c1
inactive: dose: 50.0 mg/kg/injection, schedule: Q01DX001 (ip), vehicle: Klucel (hydroxypropylcellulose) (HPC) 105 % of control | [6] 92 % of control | dose: 200.0 mg/kg/injection, schedule: Q01DX001 (ip), vehicle: Klucel (hydroxypropylcellulose) (HPC) 91 % of control

COC(=O)c1cc(S(=O)(=O)c2cc(C)c(O)c(C(=O)OC)c2)cc(C)c1O
inactive: dose: 100.0 mg/kg/injection, schedule: Q04DX002 (ip), vehicle: carboxymethylcellulose (CMC) 92 % of control | dose: 200.0 mg/kg/injection, schedule: Q04DX002 (ip), vehicle: carboxymethylcellulose (CMC) 95 % of control | dose: 400.0 mg/kg/injection, schedule: Q04DX002 (ip), vehicle: carboxymethylcellulose (CMC) 95 % of control

CCN=C(NC(=S)Nc1ccc(Cl)cc1)SCC
inactive: [4] 98 % of control | [5] 98 % of control | [7] 95 % of control

CCOC(=O)c1c[n]([Hg][n]2cc(C(=O)OCC)c(Nc3ccccc3Br)nc2=O)c(=O)nc1Nc1ccccc1Br
inactive: dose: 3.0 mg/kg/injection, schedule: Q01DX009 (ip), vehicle: Klucel (hydroxypropylcellulose) (HPC) 95 % of control | dose: 6.0 mg/kg/injection, schedule: Q01DX009 (ip), vehicle: Klucel (hydroxypropylcellulose) (HPC) 93 % of control | dose: 6.25 mg/kg/injection, schedule: Q04DX003 (ip), vehicle: Klucel (hydroxypropylcellulose) (HPC) 96 % of control | dose: 12.0 mg/kg/injection, schedule: Q01DX009 (ip), vehicle: Klucel (hydroxypropylcellulose) (HPC) 96 % of control | [8] 96 % of control and 103 % of control | [9] 88 % of control | [10] 100 % of control

O=C(CBr)Nc1ccc(C(=O)O)c(O)c1
inactive: [8] 103 % of control | [9] 92 % of control | [10] 92 % of control

CNC(=O)N(C1CCCCC1)C1CCCCC1
inactive: dose: 100.0 mg/kg/injection, schedule: Q01DX001 (ip), vehicle: saline with Tween-80 109 % of control | dose: 100.0 mg/kg/injection, schedule: Q01DX009 (ip), vehicle: saline with Tween-80 94 % of control and 111 % of control | [4] 105 % of control and 108 % of control | dose: 200.0 mg/kg/injection, schedule: Q01DX001 (ip), vehicle: saline with Tween-80 109 % of control | dose: 200.0 mg/kg/injection, schedule: Q01DX009 (ip), vehicle: saline with Tween-80 86 % of control and 91 % of control | [5] 92 % of control and 108 % of control | dose: 400.0 mg/kg/injection, schedule: Q01DX001 (ip), vehicle: saline with Tween-80 108 % of control | dose: 400.0 mg/kg/injection, schedule: Q01DX009 (ip), vehicle: saline with Tween-80 101 % of control and 91 % of control | [7] 96 % of control and 108 % of control

Cc1ccc(S(=O)(=O)Nc2ccc(C(=O)NC(CCC(=O)O)C(=O)O)cc2)cc1 (stereo not given)
inactive: dose: 100.0 mg/kg/injection, schedule: Q04DX003 (ip), vehicle: gum acacia 95 % of control | dose: 200.0 mg/kg/injection, schedule: Q04DX003 (ip), vehicle: gum acacia 98 % of control | dose: 400.0 mg/kg/injection, schedule: Q04DX003 (ip), vehicle: gum acacia 95 % of control

Cc1ccc(S(=O)(=O)N(CCCc2c(C)nc(N)nc2Cl)c2ccccc2)cc1
inactive: [6] 86 % of control | dose: 400.0 mg/kg/injection, schedule: Q01DX001 (ip), vehicle: Klucel (hydroxypropylcellulose) (HPC) 93 % of control

CC(CCc1ccccn1)C(=O)c1ccccc1 (stereo not given)
inactive: dose: 222.0 mg/kg/injection, schedule: Q01DX Z (ip), vehicle: methylcellulose (MC) 93 % of control | dose: 333.0 mg/kg/injection, schedule: Q01DX Z (ip), vehicle: methylcellulose (MC) 98 % of control | dose: 500.0 mg/kg/injection, schedule: Q01DX Z (ip), vehicle: methylcellulose (MC) 94 % of control

NC1CCC1N (stereo not given)
inactive: dose: 100.0 mg/kg/injection, schedule: Q04DX003 (ip), vehicle: saline 104 % of control | dose: 200.0 mg/kg/injection, schedule: Q04DX003 (ip), vehicle: saline 108 % of control | dose: 400.0 mg/kg/injection, schedule: Q04DX003 (ip), vehicle: saline 98 % of control

CCCCN1C(=O)C/C(=C2\CC(=O)N(CCCC)C2=O)C1=O
inactive: [11] 91 % of control | [1] 87 % of control | [12] 94 % of control | [2] 101 % of control | [13] 91 % of control | [3] 94 % of control

Cc1ccc(Cl)c(NC(=O)c2ccc(C(=O)Nc3cc(C)ccc3Cl)cc2)c1
inactive: [11] 87 % of control | [12] 88 % of control | [13] 91 % of control

CCCCCCCS(=O)c1nc2ccccc2s1 (stereo not given)
inactive: [14] 104 % of control | [15] 91 % of control | dose: 400.0 mg/kg/injection, schedule: Q04DX002 (ip), vehicle: other 91 % of control

CCCCCCCCCCNC(=O)CI
inactive: dose: 100.0 mg/kg/injection, schedule: Q01DX001 (ip), vehicle: saline 100 % of control | dose: 200.0 mg/kg/injection, schedule: Q01DX001 (ip), vehicle: saline 94 % of control

OC1c2ccccc2C(c2ccccc2)C1c1ccccc1 (stereo not given)
inactive: dose: 200.0 mg/kg/injection, schedule: Q04DX003 (ip), vehicle: saline with Tween-80 87 % of control | dose: 400.0 mg/kg/injection, schedule: Q04DX003 (ip), vehicle: saline with Tween-80 90 % of control

NCCCCS(=O)(=O)Nc1ccc(Nc2c3ccccc3nc3cc([N+](=O)[O-])ccc23)cc1
inactive: dose: 2.1 mg/kg/injection, schedule: Q01DX009 (ip), vehicle: saline 117 % of control | dose: 3.1 mg/kg/injection, schedule: Q01DX009 (ip), vehicle: saline 121 % of control | dose: 16.0 mg/kg/injection, schedule: Q01DX009 (ip), vehicle: saline 123 % of control | dose: 25.0 mg/kg/injection, schedule: Q01DX009 (sc), vehicle: saline 111 % of control | dose: 50.0 mg/kg/injection, schedule: Q01DX009 (sc), vehicle: saline 118 % of control
active: dose: 25.0 mg/kg/injection, schedule: Q01DX009 (ip), vehicle: saline 158 % of control | dose: 50.0 mg/kg/injection, schedule: Q01DX009 (ip), vehicle: saline 228 % of control | dose: 100.0 mg/kg/injection, schedule: Q01DX009 (ip), vehicle: saline 266 % of control | dose: 100.0 mg/kg/injection, schedule: Q01DX009 (sc), vehicle: saline 175 % of control | dose: 200.0 mg/kg/injection, schedule: Q01DX009 (sc), vehicle: saline 163 % of control

Cc1ccc(S(=O)(=O)N2CCCC2CO)cc1 (stereo not given)
inactive: [16] 97 % of control | [11] 101 % of control | [12] 101 % of control

CC(=O)OCC1OC(OC(C)=O)C(NC(=O)N(C)c2ccccc2)C(OC(C)=O)C1OC(C)=O (stereo not given)
inactive: [1] 105 % of control | [2] 105 % of control | [3] 105 % of control

[O-][n+]1ccccc1-c1ccccc1
inactive: [16] 104 % of control | [11] 101 % of control | dose: 100.0 mg/kg/injection, schedule: Q04DX002 (ip), vehicle: Klucel (hydroxypropylcellulose) (HPC) 104 % of control | [12] 118 % of control | dose: 200.0 mg/kg/injection, schedule: Q04DX002 (ip), vehicle: Klucel (hydroxypropylcellulose) (HPC) 107 % of control

CCC(=O)C(c1ccccc1)(c1ccccc1)c1ccccc1
inactive: [14] 95 % of control | [15] 100 % of control
